Tested on: AKT phosphorylation in IPF human lung fibroblasts
Assay: AKT phosphorylation of human lung fibroblasts
Assay type: cell-based
Details: IPF cells; CL27c 10 µM
Method: Human lung fibroblast cell culture
Two separate human lung fibroblast cell lines isolated from IPF patients were used: LL97a derived from a person (ATCC, Manassas, USA) and DHLF-IPF (#CC-7231, Lonza, Switzerland). Control cell lines were CCD-16Lu, obtained from a person that died of astrocytoma –a disease unrelated to IPF - (ATCC) and NHLF (#CC-2512; Lonza). LL97a and CCD-16Lu cells were cultured in Dulbecco's modified Eagles medium (DMEM, Sigma Aldrich, Dorset, UK). Media was supplemented with penicillin/streptomycin (100 U/ml, Thermo-Fischer, Germany) and 10% fetal bovine serum (FBS, Thermo-Fischer, Germany). Cells from Lonza were cultured in the FGMTM (#CC-3132, Lonza). […]
Caliper based assay, the reaction was terminated by addition of EDTA buffer. Substrate and product were separated and quantified electrophoretically using the microfluidic-based and the assay plate was read on Caliper LabChip 3000 Drug Discovery System from Caliper Life Sciences (Walthan, MA, USA). ADP Glo was another method of detection used for some kinase assays where data was obtained by quantifying the intensity of luminescence. For ADP Glo based assay, the reaction was terminated by applying the Promega ADP Glo Kinase Assay kit and the assay plate was read on a LJL Biosystems Analyst HT. […]

COC(=O)c1cccc(Cn2cc(-c3cccc4c(=O)cc(N5CCOCC5)[nH]c34)nn2)c1 [CL27c]
serum-induced AKT phosphorylation: effectively blunted serum-induced AKT phosphorylation

— article PMC6290777, “Inhalation of the prodrug PI3K inhibitor CL27c improves lung function in asthma and fibrosis” (Nature Communications, 2018)
